Experiments:
[1] = molecular target: T1, recombinant human ACC1 (rhACC1) (Homo sapiens, UniProt Q13085, DEL44-44); assay: recombinant hACC1 Transcreener assay (direct inhibition of ACC1 activity); format: biochemical; settings: Transcreener ADP detection FP assay, 50 μM ATP, 30 μM acetyl-CoA, 120 min at 25° C.
T1 construct: recombinant baculovirus containing full length human ACC1 cDNA; made in house; host or cells: SF9 insect cells (baculovirus)
Procedure: For example direct inhibition of ACC activity, for the compound of Formula (1) was determined using preparations of recombinant human ACC1 (rhACC1) and recombinant human ACC2 (rhACC2). Representative sequences of the recombinant human ACC1 and ACC2 that can be used in the assay are provided in FIG. 1 (SEQ ID NO. 1) and FIG. 2 (SEQ. ID NO. 2), respectively. Preparation of rhACC1. Two liters of SF9 cells, infected with recombinant baculovirus containing full length human ACC1 cDNA, were suspended in ice-cold lysis buffer (25 mM Tris, pH 7.5; 150 mM NaCl; 10% glycerol; 5 mM imidazole (EMD Bioscience; Gibbstown, N.J.); 2 mM TCEP (BioVectra; Charlottetown, Canada); Benzonase nuclease (10000 U/100 g cell paste; Novagen; Madison, Wis.); EDTA-free protease inhibitor cocktail (1 tab/50 mL; Roche Diagnostics; Mannheim, Germany). Cells were lysed by 3 cycles of freeze-thaw and centrifuged at 40,000×g for 40 minutes (4° C.). Supernatant was directly loaded onto a HisTrap FF crude column (GE Healthcare; Piscataway, N.J.) and eluted with an imidazole gradient up to 0.5 M over 20 column volumes (CV). ACC1-containing fractions were pooled and diluted 1:5 with 25 mM Tris, pH 7.5, 2 mM TCEP, 10% glycerol and direct loaded onto a CaptoQ (GE Healthcare) column and eluted with an NaCl gradient up to 1 M over 20 CV's. Phosphate groups were removed from purified ACC1 by incubation with lambda phosphatase (100 U/10 μM target protein; New England Biolabs; Beverly, Mass.) for 14 hours at 4° C.; okadaic acid was added (1 μM final concentration; Roche Diagnostics) to inhibit the phosphatase. Purified ACC1 was exchanged into 25 mM Tris, pH 7.5, 2 mM TCEP, 10% glycerol, 0.5 M NaCl by 6 hour dialysis at 4° C. Aliquots were prepared and frozen at −80° C. […] The final conditions for the assay were 50 mM HEPES, pH 7.2, 10 mM MgCl2, 7.5 mM tripotassium citrate, 2 mM DTT, 0.1 mg/mL BSA, 30 μM acetyl-CoA, 50 μM ATP, and 10 mM KHCO3 Typically, a 10 μl reaction was run for 120 min at 25° C., and 10 μl of Transcreener stop and detect buffer was added and the combination incubated at room temp for an additional 1 hour. The data was acquired on a Envision Fluorescence reader (Perkinelmer) using a 620 excitation Cy5 FP general dual mirror, 620 excitation Cy5 FP filter, 688 emission (S) and a 688 (P) emission filter.

[2] = molecular target: T2, recombinant human ACC2 (rhACC2) (Homo sapiens, UniProt O00763, V2141I); assay: recombinant hACC2 Transcreener assay (direct inhibition of ACC2 activity); format: biochemical; settings: Transcreener ADP detection FP assay, 50 μM ATP, 30 μM acetyl-CoA, 50 min at 25° C.
T2 construct: a full length Cytomax clone of ACC2 was purchased from Cambridge Bioscience Limited; made in house; host or cells: CHO cells (tetracycline-induced, pcDNA5 FRT TO-TOPO)
Procedure: For example direct inhibition of ACC activity, for the compound of Formula (1) was determined using preparations of recombinant human ACC1 (rhACC1) and recombinant human ACC2 (rhACC2). Representative sequences of the recombinant human ACC1 and ACC2 that can be used in the assay are provided in FIG. 1 (SEQ ID NO. 1) and FIG. 2 (SEQ. ID NO. 2), respectively.
[3] Preparation of rhACC2. Human ACC2 inhibition was measured using purified recombinant human ACC2 (hrACC2). Briefly, a full length Cytomax clone of ACC2 was purchased from Cambridge Bioscience Limited and was sequenced and subcloned into PcDNA5 FRT TO-TOPO (Invitrogen, Carlsbad, Calif.). The ACC2 was expressed in CHO cells by tetracycline induction and harvested in 5 liters of DMEM/F12 with glutamine, biotin, hygromycin and blasticidin with 1 μg/mL tetracycline (Invitrogen, Carlsbad, Calif.). The conditioned medium containing ACC2 was then applied to a Softlink Soft Release Avidin column (Promega, Madison, Wis.) and eluted with 5 mM biotin. 4 mgs of ACC2 were eluted at a concentration of 0.05 mg/mL (determined by A280) with an estimated purity of 95% ([…]). The purified ACC2 was dialyzed in 50 mM Tris, 200 mM NaCl, 4 mM DTT, 2 mM EDTA, and 5% glycerol. The pooled protein was frozen and stored at −80° C., with no loss of activity upon thawing. For measurement of ACC2 activity and assessment of ACC2 inhibition, test compounds were dissolved in DMSO and added to the rhACC2 enzyme as a 5× stock with a final DMSO concentration of 1%.
[4] Measurement of human ACC2 inhibition. hACC2 was assayed in a Costar #3676 (Costar, Cambridge, Mass.) 384-well plate using the Transcreener ADP detection FP assay kit (Bellbrook Labs, Madison, Wisconsin) using the manufacturer's recommended conditions for a 50 uM ATP reaction. The final conditions for the assay were 50 mM HEPES, pH 7.2, 5 mM MgCl2, 5 mM tripotassium citrate, 2 mM DTT, 0.1 mg/mL BSA, 30 μM acetyl-CoA, 50 μM ATP, and 8 mM KHCO3 Typically, a 10 μl reaction was run for 50 min at 25° C., and 10 μl of Transcreener stop and detect buffer was added and the combination incubated at room temp for an additional 1 hour. The data was acquired on an Envision Fluorescence reader (Perkinelmer) using a 620 excitation Cy5 FP general dual mirror, 620 excitation Cy5 FP filter, 688 emission (S) and a 688 (P) emission filter.

T2 sequence (O00763 whole entry V2141I): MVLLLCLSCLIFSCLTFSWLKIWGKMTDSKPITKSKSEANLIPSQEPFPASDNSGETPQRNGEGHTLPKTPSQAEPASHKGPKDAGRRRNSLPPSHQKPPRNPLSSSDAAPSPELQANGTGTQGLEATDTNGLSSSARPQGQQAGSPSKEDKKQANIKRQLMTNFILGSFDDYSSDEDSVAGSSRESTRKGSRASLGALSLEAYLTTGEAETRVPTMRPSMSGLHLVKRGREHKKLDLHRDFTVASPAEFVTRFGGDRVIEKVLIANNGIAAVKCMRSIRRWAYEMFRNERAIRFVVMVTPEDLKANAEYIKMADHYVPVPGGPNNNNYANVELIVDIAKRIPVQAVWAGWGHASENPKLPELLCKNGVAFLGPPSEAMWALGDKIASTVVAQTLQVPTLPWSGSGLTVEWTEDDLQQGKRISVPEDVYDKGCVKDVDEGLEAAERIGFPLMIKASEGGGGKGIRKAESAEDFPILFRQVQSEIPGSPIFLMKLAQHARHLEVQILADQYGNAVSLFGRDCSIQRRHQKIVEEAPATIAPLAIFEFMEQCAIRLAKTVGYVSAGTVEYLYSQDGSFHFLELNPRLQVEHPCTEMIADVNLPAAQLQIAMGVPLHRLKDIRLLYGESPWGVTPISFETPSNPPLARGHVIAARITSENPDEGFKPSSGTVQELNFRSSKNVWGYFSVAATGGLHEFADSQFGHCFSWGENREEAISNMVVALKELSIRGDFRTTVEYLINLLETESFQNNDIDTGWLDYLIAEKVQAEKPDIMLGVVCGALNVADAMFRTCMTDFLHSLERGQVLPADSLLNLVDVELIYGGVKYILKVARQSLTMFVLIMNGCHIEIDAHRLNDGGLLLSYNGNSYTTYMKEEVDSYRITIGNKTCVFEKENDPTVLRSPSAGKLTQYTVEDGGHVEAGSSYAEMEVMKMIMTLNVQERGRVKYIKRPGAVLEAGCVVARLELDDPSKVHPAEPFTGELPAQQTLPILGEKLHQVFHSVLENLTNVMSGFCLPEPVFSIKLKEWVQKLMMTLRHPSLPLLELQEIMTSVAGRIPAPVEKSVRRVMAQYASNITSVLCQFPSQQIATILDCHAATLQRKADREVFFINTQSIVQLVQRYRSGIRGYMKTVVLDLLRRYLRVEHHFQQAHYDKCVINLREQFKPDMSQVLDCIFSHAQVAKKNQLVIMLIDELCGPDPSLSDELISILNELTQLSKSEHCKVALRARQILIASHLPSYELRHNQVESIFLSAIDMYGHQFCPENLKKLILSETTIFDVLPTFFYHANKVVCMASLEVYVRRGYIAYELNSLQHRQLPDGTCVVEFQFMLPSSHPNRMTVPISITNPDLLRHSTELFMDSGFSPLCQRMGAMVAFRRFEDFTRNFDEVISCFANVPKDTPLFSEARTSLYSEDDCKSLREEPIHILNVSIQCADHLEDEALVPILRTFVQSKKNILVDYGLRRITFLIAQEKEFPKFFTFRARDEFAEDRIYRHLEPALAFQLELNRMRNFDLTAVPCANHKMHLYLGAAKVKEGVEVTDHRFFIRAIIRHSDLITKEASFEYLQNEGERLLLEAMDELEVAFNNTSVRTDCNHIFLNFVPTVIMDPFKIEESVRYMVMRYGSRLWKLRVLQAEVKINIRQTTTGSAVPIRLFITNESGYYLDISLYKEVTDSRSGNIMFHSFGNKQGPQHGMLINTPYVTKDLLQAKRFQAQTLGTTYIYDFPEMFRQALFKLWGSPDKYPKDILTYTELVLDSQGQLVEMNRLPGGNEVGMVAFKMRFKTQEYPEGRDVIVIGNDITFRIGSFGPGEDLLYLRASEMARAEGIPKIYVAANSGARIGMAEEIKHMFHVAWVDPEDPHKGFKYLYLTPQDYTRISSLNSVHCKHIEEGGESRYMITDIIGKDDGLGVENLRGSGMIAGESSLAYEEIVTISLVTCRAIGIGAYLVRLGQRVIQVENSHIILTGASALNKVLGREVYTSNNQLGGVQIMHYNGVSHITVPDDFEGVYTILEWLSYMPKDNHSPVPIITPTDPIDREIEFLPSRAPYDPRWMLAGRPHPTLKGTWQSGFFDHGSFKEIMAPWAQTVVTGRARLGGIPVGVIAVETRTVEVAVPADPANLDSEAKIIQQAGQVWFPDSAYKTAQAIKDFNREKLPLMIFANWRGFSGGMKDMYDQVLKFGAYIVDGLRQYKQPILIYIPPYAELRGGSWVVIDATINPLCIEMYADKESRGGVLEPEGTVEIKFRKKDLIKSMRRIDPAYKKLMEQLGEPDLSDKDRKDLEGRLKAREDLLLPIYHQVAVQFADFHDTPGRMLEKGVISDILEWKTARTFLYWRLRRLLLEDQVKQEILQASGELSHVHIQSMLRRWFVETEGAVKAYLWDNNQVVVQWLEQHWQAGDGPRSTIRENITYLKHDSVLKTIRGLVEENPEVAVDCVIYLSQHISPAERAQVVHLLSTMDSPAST

| Compound | IC50 [1] [nM] | IC50 [2] [nM] |
| --- | --- | --- |
| CC(=O)Nc1cccc(C(=O)N2CCC3(CC2)CC(=O)c2c(cnn2C(C)C)C3)n1 [Example 2A-62] | 4210 | 1280 |
| CC(C)(C)n1ncc2c1C(=O)CC1(CCN(C(=O)c3ccc4cnccc4n3)CC1)C2 [Example 11A-61] | 2570 | 1350 |
| CC(C)n1ncc2c1C(=O)CC1(CCN(C(=O)c3ccc(N4CCOCC4)cn3)CC1)C2 [Example 11A-42] | 11700 | 2850 |
| CC(C)n1ncc2c1C(=O)CC1(CCN(C(=O)c3cn4cccc4cn3)CC1)C2 [Example 11A-34] | 2140 | 638 |
| Cc1noc(-c2cc(C(=O)N3CCC4(CC3)CC(=O)c3c(cnn3C(C)C)C4)ccn2)n1 [Example 2A-60] | 8240 | 3990 |
| CC(C)n1ncc2c1C(=O)CC1(CCN(C(=O)c3cnc(-c4ccccn4)[nH]3)CC1)C2 [Example 11A-37] | 1030 | 463 |
| CC(C)n1ncc2c1C(=O)CC1(CCN(C(=O)c3ccc(-n4ccnc4)cn3)CC1)C2 [Example 11A-63] | 8720 | 2550 |
| Cc1cc(C(=O)N2CCC3(CC2)CC(=O)c2c(cnn2C(C)(C)C)C3)n(-c2cccnc2)n1 [Example 11A-5] | 16400 | 13200 |
| Cc1cc(C(=O)N2CCC3(CC2)CC(=O)c2c(cnn2C(C)C)C3)n(-c2cccnc2)n1 [Example 11A-4] | 19600 | 5800 |
| Cc1ccc(O)c(C(=O)N2CCC3(CC2)CC(=O)c2c(cnn2C(C)C)C3)n1 [Example 11A-49] | 13500 | 4910 |
| Cc1cc(C(=O)N2CCC3(CC2)CC(=O)c2c(cnn2C(C)(C)C)C3)c(N)c(C)n1 [Example 11A-38] | 2170 | 1030 |
| COCC(C)n1ncc2c1C(=O)CC1(CCN(C(=O)c3ccc(Cl)c(C)c3)CC1)C2 (centres unmarked) [Example 2A-3] | 2720 | 680 |
| CC(C)(C)n1nc(C#N)c2c1C(=O)CC1(CCN(C(=O)c3ccc4[nH]ncc4c3)CC1)C2 [Example 2A-77] | 6160 | 1300 |
| CC(C)n1ncc2c1C(=O)CC1(CCN(C(=O)c3cc4[nH]ccn4n3)CC1)C2 [Example 2A-67] | 799 | 653 |
| Cc1cc(C(=O)N2CCC3(CC2)CC(=O)c2c(cnn2C(C)C)C3)c(N)c(C)n1 [Example 11A-2] | 1480 | 658 |
| CC(C)n1ncc2c1C(=O)CC1(CCN(C(=O)c3cnc(N4CCOCC4)nc3)CC1)C2 [Example 2A-66] | 30000 | 14000 |
| CC(C)n1ncc2c1C(=O)CC1(CCN(C(=O)c3ccn4ccnc4c3)CC1)C2 [Example 11A-52] | 550 | 176 |
| CC(C)n1ncc2c1C(=O)CC1(CCN(C(=O)c3cc4cnccc4[nH]3)CC1)C2 [Example 11A-56] | 1010 | 359 |
| CC(C)n1ncc2c1C(=O)CC1(CCN(C(=O)c3ccc4[nH]cnc4n3)CC1)C2 [Example 11A-65] | 1080 | 388 |
| CC(C)n1ncc2c1C(=O)CC1(CCN(C(=O)c3cnc4ccccc4n3)CC1)C2 [Example 2A-61] | 2320 | 2190 |

Now those with a lower IC50 [1], led by results:

| IC50 [1] [nM] | IC50 [2] [nM] | Compound |
| --- | --- | --- |
| 272 | 93.1 | CC(C)n1ncc2c1C(=O)CC1(CCN(C(=O)c3cnc4[nH]cnc4c3)CC1)C2 [Example 11A-33] |
| 170 | 51 | CC(C)(C)n1ncc2c1C(=O)CC1(CCN(C(=O)c3ccc4c(c3)CC(=O)N4)CC1)C2 [Example 2A-30] |
| 155 | 96.4 | CC(C)(C)n1ncc2c1C(=O)CC1(CCN(C(=O)c3ccn4cncc4c3)CC1)C2 [Example 11A-32] |
| 151 | 64.5 | CC(C)(C)n1ncc2c1C(=O)CC1(CCN(C(=O)c3cc(-c4cccnc4)[nH]n3)CC1)C2 [Example 11A-29] |
| 147 | 31.8 | CC(C)n1ncc2c1C(=O)CC1(CCN(C(=O)c3ccc(-c4ncc[nH]4)cc3)CC1)C2 [Example 11A-1, 1′-(4-(1H-imidazol-2-yl)benzoyl)-1-isopropyl-4,6-dihydrospiro[indazole-5,4′-piperidin]-7(1H)-one] |
| 117 | 83.4 | CC(C)n1ncc2c1C(=O)CC1(CCN(C(=O)c3cnc4cn[nH]c4c3)CC1)C2 [Example 11A-31] |
| 112 | 43.8 | CC(C)n1ncc2c1C(=O)CC1(CCN(C(=O)c3cccc(-c4cc[nH]n4)c3)CC1)C2 [Example 11A-15] |
| 96.1 | 48.6 | Cc1nc2ccc(C(=O)N3CCC4(CC3)CC(=O)c3c(cnn3C(C)C)C4)cc2[nH]1 [Example 3A-1, 1-isopropyl-1′-(2-methyl-1H-benzo[d]imidazole-5-carbonyl)-4,6-dihydrospiro[indazole-5,4′-piperidin]-7(1H)-one] |
| 95.3 | 28 | CC(C)n1ncc2c1C(=O)CC1(CCN(C(=O)c3ccc4cc[nH]c(=O)c4c3)CC1)C2 [Example 2A-13] |
| 92.1 | 71.6 | Cn1c(=O)[nH]c2ccc(C(=O)N3CCC4(CC3)CC(=O)c3c(cnn3C(C)(C)C)C4)cc21 [Example 2A-49] |
| 68.4 | 51.2 | CC(C)n1ncc2c1C(=O)CC1(CCN(C(=O)c3ccc4cn[nH]c4c3)CC1)C2 [Example 2A-68] |
| 53.7 | 14.5 | CC(C)n1ncc2c1C(=O)CC1(CCN(C(=O)c3ccc4[nH]c(=O)[nH]c4c3)CC1)C2 [Example 2A-33] |
| 51.1 | 17.2 | CC(C)(C)n1ncc2c1C(=O)CC1(CCN(C(=O)c3cc(Cl)c4nc[nH]c4c3)CC1)C2 [Example 2A-48] |
| 37 | 28.6 | CC(C)(C)n1ncc2c1C(=O)CC1(CCN(C(=O)c3ccc4[nH]cnc4c3)CC1)C2 [Example 2A-32] |
| 36.8 | 10.4 | CC(C)(C)n1ncc2c1C(=O)CC1(CCN(C(=O)c3cccc(-c4c[nH]cn4)c3)CC1)C2 [Example 11A-7] |
| 32.3 | 23.3 | CC(C)(C)n1ncc2c1C(=O)CC1(CCN(C(=O)c3cnc4[nH]ccc4c3)CC1)C2 [Example 2A-23] |
| 30.7 | 15.8 | CC(C)(C)n1ncc2c1C(=O)CC1(CCN(C(=O)c3cnc4cc[nH]c4c3)CC1)C2 [Example 2A-24] |

Reference: patent US9139587B2, “N1-pyrazolospiroketone acetyl-CoA carboxylase inhibitors” (Pfizer Inc., priority 2009, dated 2015)
